Counter-ions that a name gives are not always drawn. Like-named read-outs stand apart in the source and are kept apart here.
Experiments:
T47D cells = test: Cell-based assay: anti-proliferative activity, Cell Counting Kit-8, 72 hours (T47D); details: Homo sapiens, T47D, 72 h
Outline: (§1)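 Anti-MELK western blot on crude lysates → MELK status per line. Cells plated 96-well, compound exposure, CCK-8 readout at 72 h; IC50 calculated.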

MELK = MELK (Homo sapiens, UniProt Q14680); test: Kinase assay: MELK activity, phosphorylation of FITC-labeled histone H3 peptide measured by IMAP fluorescence polarization; type: biochemical; details: read-out: IC50 (μM) (kinase assay)
MELK, sequence (Q14680 whole entry, looked up): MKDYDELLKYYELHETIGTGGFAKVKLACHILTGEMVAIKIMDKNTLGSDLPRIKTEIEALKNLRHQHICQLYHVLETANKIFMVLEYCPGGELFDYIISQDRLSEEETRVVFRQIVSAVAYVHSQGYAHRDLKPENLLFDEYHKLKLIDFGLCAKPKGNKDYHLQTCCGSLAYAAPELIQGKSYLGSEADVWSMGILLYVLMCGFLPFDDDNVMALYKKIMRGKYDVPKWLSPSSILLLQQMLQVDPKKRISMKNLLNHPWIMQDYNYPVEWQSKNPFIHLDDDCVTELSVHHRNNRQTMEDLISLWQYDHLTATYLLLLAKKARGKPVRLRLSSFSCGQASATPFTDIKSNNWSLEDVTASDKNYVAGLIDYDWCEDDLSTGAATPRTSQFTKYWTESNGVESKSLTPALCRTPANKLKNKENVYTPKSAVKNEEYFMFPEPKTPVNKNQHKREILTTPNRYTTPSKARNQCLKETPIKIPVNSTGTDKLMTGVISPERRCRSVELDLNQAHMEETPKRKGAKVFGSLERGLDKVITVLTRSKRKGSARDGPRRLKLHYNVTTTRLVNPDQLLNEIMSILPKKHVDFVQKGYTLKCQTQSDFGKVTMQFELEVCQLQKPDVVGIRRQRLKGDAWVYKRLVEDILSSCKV
Outline: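 Compounds, serially diluted from 12.5 mM DMSO stocks to 1% final DMSO, were tested with FITC-labeled histone H3 peptide as substrate. The reaction was stopped with progressive binding solution. Fluorescence polarization was read after 0.5 hour at room temperature.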

HT-1197 cells = test: Cell-based assay: anti-proliferative activity, Cell Counting Kit-8, 72 hours (HT-1197, negative control without MELK expression); details: Homo sapiens, HT1197, 72 h, HT1197 cells (negative control), 72 hours
Outline: as §1

A549 cells = test: Cell-based assay: anti-proliferative activity, Cell Counting Kit-8, 72 hours (A549); details: Homo sapiens, A549, 72 h, 72 hours
Outline: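 A549 cells were seeded in 96-well plates and exposed to candidate inhibitors for 72 hours. Cell growth was then measured with Cell Counting Kit-8, and IC50 values were calculated from the resulting growth data.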

DU4475 cells = test: Cell-based assay: anti-proliferative activity, Cell Counting Kit-8, 72 hours (DU4475); details: Homo sapiens, DU-4475, 72 h

Row | SMILES | IC50 (T47D cells) [µM] | IC50 (MELK; hydrochloride) [µM] | IC50 (HT-1197 cells) [µM] | IC50 (A549 cells) [µM] | IC50 (DU4475 cells) [µM] | IC50 (MELK) [µM]
1 | CC(C)(N)c1ccc(Nc2c(C(=O)C3CC3)cnc3ccc(-c4cc(Cl)c(O)c(Cl)c4)cc23)cc1 [Example 601, {4-[4-(2-Aminopropan-2-yl)phenylamino]-6-(3,5-dichloro-4-hydroxyphenyl)quinolin-3-yl}(cyclopropyl)methanone hydrochloride] | 0.09 | 0.0014 | 0.42 | 0.047 | 0.023 | –
2 | CN[C@H]1CC[C@H](Nc2c(C(=O)C3CC3)cnc3ccc(-c4cnc(C#N)nc4)cc23)CC1 [Example 522] | 0.23 | – | 1.1 | 0.95 | 0.91 | 0.0014
3 | Nc1ccc(Nc2c(C(=O)C3CC3)cnc3ccc(-c4cc(F)c(O)c(Cl)c4)cc23)cn1 [Example 591, (4-(6-aminopyridin-3-ylamino)-6-(3-chloro-5-fluoro-4-hydroxyphenyl)quinolin-3-yl)(cyclopropyl)methanone] | 0.26 | – | 1.4 | 0.36 | 0.12 | 0.032
4 | COc1cc(-c2ccc3ncc(C(C)=O)c(Nc4cnc(N5CCNCC5)nc4)c3c2)cc(Cl)c1O [Example 616, 1-(6-(3-chloro-4-hydroxy-5-methoxyphenyl)-4-(2-(piperazin-1-yl)pyrimidin-5-ylamino)quinolin-3-yl)ethanone] | 0.22 | – | 1.8 | 0.66 | 0.5 | 0.0044
5 | CCCC(=O)c1cnc2ccc(-c3cc(Cl)c(O)c(Cl)c3)cc2c1Nc1ccc(CN(C)C)cc1 [Example 530, 1-(6-(3,5-dichloro-4-hydroxyphenyl)-4-((4-((dimethylamino)methyl)phenyl)amino)quinolin-3-yl)butan-1-one] | 0.07 | – | 1.2 | 0.15 | 0.086 | 0.0045
6 | NC1CCN(c2ccc(Nc3c(C(=O)C4CC4)cnc4ccc(-c5cc(Cl)c(O)c(Cl)c5)cc34)cn2)CC1 [Example 548, (4-(6-(4-aminopiperidin-1-yl)pyridin-3-ylamino)-6-(3,5-dichloro-4-hydroxyphenyl)quinolin-3-yl)(cyclopropyl)methanone] | 0.097 | – | 3.4 | 0.45 | 0.099 | 0.002
7 | COc1cc(-c2ccc3ncc(C(=O)C4CC4)c(NC4C[C@H]5CC[C@@H](C4)N5)c3c2)cc(Cl)c1O (stereo partly drawn) [Example 579, (4-((1R,3r,5S)-8-azabicyclo[3.2.1]octan-3-ylamino)-6-(3-chloro-4-hydroxy-5-methoxyphenyl)quinolin-3-yl)(cyclopropyl)methanone] | 0.17 | – | 7.8 | 0.27 | 0.14 | 0.0042
8 | COc1cc(-c2ccc3ncc(C(=O)C4CC4)c(Nc4ccc(NC5CCCNC5)nc4)c3c2)cc(Cl)c1O (stereo not shown) [Example 609, (6-(3-chloro-4-hydroxy-5-methoxyphenyl)-4-(6-(piperidin-3-ylamino)pyridin-3-ylamino)quinolin-3-yl)(cyclopropyl)methanone] | 0.22 | – | 3.9 | 0.68 | 0.34 | 0.0025
9 | COc1cc(-c2ccc3ncc(C(=O)C4CC4)c(C4=CCNCC4)c3c2)cc(Cl)c1O [Example 516, (6-(3-chloro-4-hydroxy-5-methoxyphenyl)-4-(1,2,3,6-tetrahydropyridin-4-yl)quinolin-3-yl)(cyclopropyl)methanone] | 0.52 | – | 3 | 0.36 | 0.66 | 0.0044
10 | CCCC(=O)c1cnc2ccc(-c3cc(Cl)c(O)c(OC)c3)cc2c1Nc1ccc(CN(C)C)cc1 [Example 538, 1-(6-(3-chloro-4-hydroxy-5-methoxyphenyl)-4-(4-((dimethylamino)methyl)phenylamino)quinolin-3-yl)butan-1-one] | 0.28 | – | 3.1 | 0.45 | 0.27 | 0.02
11 | NC1CCCN(c2ncc(Nc3c(C(=O)C4CC4)cnc4ccc(-c5cc(Cl)c(O)c(Cl)c5)cc34)cn2)C1 (stereo not shown) [Example 628, (4-(2-(3-aminopiperidin-1-yl)pyrimidin-5-ylamino)-6-(3,5-dichloro-4-hydroxyphenyl)quinolin-3-yl)(cyclopropyl)methanone] | 0.0069 | – | 0.33 | 0.019 | 0.0056 | 0.0015
12 | O=C(c1cnc2ccc(-c3cc(Cl)c(O)c(Cl)c3)cc2c1Nc1cnn(C2CCNCC2)c1)C1CC1 [Example 511, cyclopropyl(6-(3,5-dichloro-4-hydroxyphenyl)-4-((1-(piperidin-4-yl)-1H-pyrazol-4-yl)amino)quinolin-3-yl)methanone] | 0.18 | – | 10 | 0.31 | 0.019 | 0.017
13 | O=C(c1cnc2ccc(-c3cc(F)c(O)c(Cl)c3)cc2c1Nc1cnn(C2CCNCC2)c1)C1CC1 [Example 520] | 0.081 | – | 10 | 0.52 | 0.042 | 0.0016
14 | COc1cc(-c2ccc3ncc(C(=O)C4CC4)c(N[C@H]4CC[C@@H](CN(C)CC#N)CC4)c3c2)cc(Cl)c1O [Example 518, 2-((((1R,4R)-4-(6-(3-chloro-4-hydroxy-5-methoxyphenyl)-3-(cyclopropanecarbonyl)quinolin-4-ylamino)cyclohexyl)methyl)(methyl)amino)acetonitrile] | 0.16 | – | 3.4 | 0.17 | 0.078 | 0.013
15 | CCCC(=O)c1cnc2ccc(-c3cc(Cl)c(O)c(Cl)c3)cc2c1N[C@H]1CC[C@H](N)CC1 [Example 535, 1-(4-((trans-4-aminocyclohexyl)amino)-6-(3,5-dichloro-4-hydroxyphenyl)quinolin-3-yl)butan-1-one] | 0.077 | – | 3.3 | 0.24 | 0.025 | 0.0024
16 | CN1CCC(n2cc(Nc3c(C(=O)C4CC4)cnc4ccc(-c5cc(F)c(O)c(Cl)c5)cc34)cn2)CC1 [Example 592, (6-(3-Chloro-5-fluoro-4-hydroxyphenyl)-4-(1-(1-methylpiperidin-4-yl)-1H-pyrazol-4-ylamino)quinolin-3-yl)(cyclopropyl)methanone] | 0.24 | – | 2.8 | 0.13 | 0.068 | 0.0015
17 | CCCC(=O)c1cnc2ccc(-c3cc(Cl)c(O)c(Cl)c3)cc2c1N[C@H]1CC[C@H](CN(C)C)CC1 [Example 605, 1-{6-(3,5-Dichloro-4-hydroxyphenyl)-4-[trans-4-((dimethylamino)methyl)cylohexylamino]quinolin-3-yl}butan-1-one] | 0.095 | – | 1.1 | 0.13 | 0.051 | 0.002
18 | CC(=O)c1cnc2ccc(-c3cc(F)c(O)c(Cl)c3)cc2c1N[C@H]1CC[C@H](N)CC1 [Example 527, 1-(4-((trans-4-aminocyclohexyl)amino)-6-(3-chloro-5-fluoro-4-hydroxyphenyl)quinolin-3-yl)ethanone] | 0.034 | – | 10 | 0.42 | 0.02 | 0.015
19 | NC1CCCN(c2ccc(Nc3c(C(=O)C4CC4)cnc4ccc(-c5cc(F)c(O)c(Cl)c5)cc34)cn2)C1 (stereo not shown) [Example 561, (4-(6-(3-aminopiperidin-1-yl)pyridin-3-ylamino)-6-(3-chloro-5-fluoro-4-hydroxyphenyl)quinolin-3-yl)(cyclopropyl)methanone] | 0.0055 | – | 0.3 | 0.008 | 0.0066 | 0.0027
20 | COc1cc(-c2ccc3ncc(C(C)=O)c(Nc4ccc(C(N)=O)cc4)c3c2)cc(Cl)c1O [Example 544, 4-(3-acetyl-6-(3-chloro-4-hydroxy-5-methoxyphenyl)quinolin-4-ylamino)benzamide] | 0.17 | – | 2.2 | 0.47 | 0.2 | 0.018
21 | O=C(c1cnc2ccc(-c3cc(F)c(O)c(Cl)c3)cc2c1N[C@H]1C[C@H]2CC[C@@H](C1)N2)C1CC1 [Example 621, (4-((1R,3r,5S)-8-azabicyclo[3.2.1]octan-3-ylamino)-6-(3-chloro-5-fluoro-4-hydroxyphenyl)quinolin-3-yl)(cyclopropyl)methanone] | 0.24 | – | 3.9 | 0.91 | 0.11 | 0.01
22 | CC(C)C(=O)c1cnc2ccc(-c3cc(Cl)c(O)c(Cl)c3)cc2c1N[C@H]1CC[C@H](CN(C)C)CC1 [Example 608, 1-(6-(3,5-dichloro-4-hydroxyphenyl)-4-((1R,4R)-4-((dimethylamino)methyl)cyclohexylamino)quinolin-3-yl)-2-methylpropan-1-one] | 0.15 | – | 0.46 | 0.25 | 0.072 | 0.0022
23 | COc1cc(-c2ccc3ncc(C(=O)C4CC4)c(N4CCN(C)CC4)c3c2)cc(Cl)c1O [Example 533, (6-(3-chloro-4-hydroxy-5-methoxyphenyl)-4-(4-methylpiperazin-1-yl)quinolin-3-yl)(cyclopropyl)methanone] | 0.48 | – | 2.6 | 0.26 | 0.4 | 0.0088

— patent publication US9120749B2, “Quinoline derivatives and MELK inhibitors containing the same” (ONCOTHERAPY SCIENCE, INC., priority 2010, dated 2015)
